Results as given in ChEMBL document CHEMBL3853308, “Condensation of Macrocyclic Polyketides Produced by Penicillium sp. DRF2 with Mercaptopyruvate Represents a New Fungal Detoxification Pathway” (J Nat Prod, 2016).

How the values were obtained:
[1] = Cytotoxicity against human MCF10A cells at 7.8 to 1000 uM after 24 hrs by XTT assay; type: toxicity, cell-based; conditions: mcf-10a
[2] = Cytotoxicity against human A549 cells after 24 hrs by XTT assay; type: functional, cell-based; conditions: A549, 24 h
[3] = Cytotoxicity against human HeLa cells after 24 hrs by XTT assay; type: functional, cell-based
[4] = Cytotoxicity against human MCF7 cells after 24 hrs by XTT assay; conditions: MCF7, 24 h

Compound	Activity [1]	IC50 [2]	IC50 [3]	IC50 [4]
C[C@H]1CCC(=O)/C=C/C(=O)c2c(O)cc(O)cc2CC(=O)O1	Non-Toxic	–	–	–
COC(=O)[C@@]1(O)CS[C@H]2CCC[C@H](C)OC(=O)Cc3cc(O)cc(O)c3C(=O)[C@@H]21	Non-Toxic	–	–	–
C[C@H]1CCC[C@@H]2SC[C@](O)(C(=O)O)[C@H]2C(=O)c2c(O)cc(O)cc2CC(=O)O1	Non-Toxic	–	–	–
C[C@H]1CCC[C@H]2O[C@H]2C(=O)c2c(O)cc(O)cc2CC(=O)O1	Non-Toxic	–	–	–
COc1cccc2c1C(=O)c1c(O)c3c(c(O)c1C2=O)C[C@@](O)(C(=O)CO)C[C@@H]3O[C@H]1C[C@H](N)[C@H](O)[C@H](C)O1 [DOXORUBICIN]	–	190 nM	140 nM	120 nM
